The record followed here is patent US20230173070A1, “METHODS AND SYSTEMS FOR ENHANCING DELIVERY OF THERAPEUTIC AGENTS TO BIOFILMS USING LOW BOILING POINT PHASE CHANGE CONTRAST AGENTS” (The University of North Carolina at Chapel Hill, priority 2020, published 2023).

Structures can show the parent of a compound that is named as a salt.

Test [1] concerns MRSA biofilms (USA300 LAC). As to the kind of experiment: MRSA biofilm assay, antibiotics alone, survivors enumerated by plating. The settings on record: antibiotic alone at clinically achievable concentration (Cmax), 24 hours of drug treatment of mature biofilm, FIG. 2A. It counts as cell-based, S. aureus. The protocol: Antibiotics were chosen based on clinical relevance or previously reported anti-biofilm efficacy in vitro. Mature MRSA biofilms (USA300 LAC) were cultured for 24 hours in tissue culture treated plates before the addition of antibiotics. Following 24 hours of drug treatment, biofilms were washed, and survivors were enumerated by plating.
(§1) MRSA strain LAC biofilms were cultured overnight in brain-heart infusion (BHI) media in 12-well (FIGS. 2A and 2B) or 24-well (FIG. 2C) tissue culture treated plates. Biofilms were washed and treated with antibiotics. Where indicated, plates were transferred to a custom-built temperature-controlled 37° C. water bath alignment setup. PCCA were added and 30 s ultrasound exposure was applied at indicated pressures and 20% duty cycle (FIG. 2B) or 10% duty cycle (FIG. 2C). After 24 hours, biofilms were washed, sonicated for disruption and surviving cells were enumerated by serial dilution plating. Survivors were presented as log10 CFU/ml. The averages of n=3 biologically independent samples are shown. The error bars represent the standard deviation. Statistical significance was determined using a one-way analysis of variance (ANOVA) with Dunnett's (FIG. 2A) or Sidak's multiple comparison test (FIGS. 2B and 2C). **, ***, **** denotes P<0.005, P<0.0005, P<0.0001, respectively. LEV, levofloxacin; GENT, gentamicin; TOB, tobramycin; MUP, mupirocin; VAN, vancomycin; LIN, linezolid, RIF, 10 μg/ml rifampicin; ns, not significant; US-PCCA, ultrasound-stimulated phase change contrast agents.
Biofilm assays were performed using the USA300 MRSA strain LAC. It is a highly characterized community-acquired MRSA (CA-MRSA) strain isolated in 2002 from an abscess of an inmate in Los Angeles County jail in California^67. LAC was cultured overnight (18 h) in brain heart infusion (BHI) media (Oxoid) in biological triplicates. Each culture was diluted 1:150 in fresh media and 2 or 3 ml was added to the wells of 24-well or 12-well tissue culture treated plates (Costar), respectively. Biofilms were covered with Breathe-Easier sealing strips (Sigma) and incubated at 37° C. for 24 h. Biofilms were carefully washed twice with PBS and fresh BHI media containing antibiotics was added. Biofilms were covered and incubated at 37° C. for 24 h. Biofilms were carefully washed twice with PBS before dispersal in a sonicating water bath (5 min) and vigorous pipetting. Surviving cells were enumerated by serial dilution and plating. […] For daptomycin activity, the media was supplemented with 50 mg/L of Ca^2+ ions. Where indicated tobramycin was supplemented with 30 μg/ml rhamnolipids^22 (50/50 mix of mono- and di-rhamnolipids, Sigma). Where indicated biofilms were treated with PCCA and ultrasound. For crystal violet staining, biofilms were carefully washed twice with PBS, and dried in a 65° C. oven for 1 h. Biofilms were stained with 1 ml 0.4% crystal violet for 5 min, and washed 3× with PBS. Wells were photographed, and stain was solubilized with 2 ml 5% acetic acid and absorbance measured at 570 nm.

The test system of a further test is MRSA strain LAC biofilms. Nature of the test: MRSA biofilm assay with antibiotics plus PCCA and ultrasound (US-PCCA), survivors enumerated by plating. Type of test: cell-based, S. aureus. The settings on record: for increase in killing of biofilm-associated cells by US-PCCA: vs antibiotic alone, 10% duty cycle, FIG. 2C; for increase in killing of biofilm-associated cells by US-PCCA / enhancement of tobramycin efficacy in the presence of PCCAs: 30 s ultrasound; for enhancement of tobramycin efficacy in the presence of PCCAs: 20% duty cycle, FIG. 2B. How it is done: Next, we tested the ability of 30 second (s) US-PCCA treatment to potentiate tobramycin efficacy. […] We hypothesized that US-PCCA might improve tobramycin penetration into biofilms and increase its efficacy. Mature biofilms were washed and transferred to a custom-built temperature-controlled 37° C. water bath alignment setup (FIG. 1B). Tobramycin and PCCAs were added and ultrasound applied at a range of rarefactional pressures (300-1200 kPa).
as §1
MRSA strain LAC biofilms were cultured overnight in brain-heart infusion (BHI) media in 24-well tissue culture treated plates. Biofilms were washed and treated with antibiotics and transferred to a custom-built temperature-controlled 37° C. water bath alignment setup. PCCAs were added and 30 s ultrasound exposure was applied at 300 kPa or 600 kPa (FIG. 3B and 3C) and 10% duty cycle. After 24 h, biofilms were washed, sonicated for disruption and surviving cells were enumerated by serial dilution plating (FIG. 3A) or stained with crystal violet (FIG. 3B). The averages of n=6 biologically independent samples are shown. The error bars represent the standard deviation. Statistical significance was determined using a one-way analysis of variance (ANOVA) with Dunnett's multiple comparison test (a) or multiple unpaired t-test (2-tailed) (FIG. 3C). *, **, **** denotes P<0.05, P<0.005, P<0.0001, respectively. TOB, 58 μg/ml tobramycin; RL, 30 μg/ml rhamnolipids; DAP, 100 μg/ml daptomycin; LIN, 15 μg/ml linezolid; RIF, 10 μg/ml rifampicin; ADEP, 5 μg/ml acyldepsipeptide; ns, not significant; US-PCCA, ultrasound-stimulated phase change contrast agents.
Biofilm assays were performed using the USA300 MRSA strain LAC. It is a highly characterized community-acquired MRSA (CA-MRSA) strain isolated in 2002 from an abscess of an inmate in Los Angeles County jail in California^67. LAC was cultured overnight (18 h) in brain heart infusion (BHI) media (Oxoid) in biological triplicates.

Turning to gentamicin, in test [1], the “reduction in surviving biofilm cells” value is on record as “no efficacy”.
Take `C/C(=C\C(=O)OCCCCCCCCC(=O)O)C[C@@H]1OC[C@H](C[C@@H]2O[C@H]2[C@@H](C)[C@H](C)O)[C@@H](O)[C@H]1O` [mupirocin]: in the test with MRSA strain LAC biofilms, the “increase in killing of biofilm-associated cells by US-PCCA” value is 41%. In test [1], the “reduction in surviving biofilm cells” value is recorded as “significant reduction”.
Turning to `CCCCCC/C=C\CCCCCCCC(=O)O` [Palmitoleic acid, palmitoleic acid], the “vancomycin killing of biofilms” value in the test with MRSA strain LAC biofilms (50 μg/ml vancomycin, 30 μg/ml palmitoleic acid, with US-PCCA (30 s, 1 MHz, 600 kPa, 10% duty cycle), FIG. 12) is given as “drastically improves vancomycin killing”.
For `CN[C@H](CC(C)C)C(=O)N[C@H]1C(=O)N[C@@H](CC(N)=O)C(=O)N[C@H]2C(=O)N[C@H]3C(=O)N[C@H](C(=O)N[C@H](C(=O)O)c4cc(O)cc(O)c4-c4cc3ccc4O)[C@H](O)c3ccc(c(Cl)c3)Oc3cc2cc(c3O[C@@H]2O[C@H](CO)[C@@H](O)[C@H](O)[C@H]2O[C@H]2C[C@](C)(N)[C@H](O)[C@H](C)O2)Oc2ccc(cc2Cl)[C@H]1O` [vancomycin, vancomycin hydrochloride], the “increase in killing of biofilm-associated cells by US-PCCA” value in the test on MRSA strain LAC biofilms was 93%. In test [1], the “reduction in surviving biofilm cells” value is “significant reduction”.
As for `CC(=O)NC[C@H]1CN(c2ccc(N3CCOCC3)c(F)c2)C(=O)O1` [linezolid], the “reduction in surviving biofilm cells” value in test [1] is “significant reduction”.
Turning to `NC[C@H]1O[C@H](O[C@H]2[C@H](O)[C@@H](O[C@H]3O[C@H](CO)[C@@H](O)[C@H](N)[C@H]3O)[C@H](N)C[C@@H]2N)[C@H](N)C[C@@H]1O` [Tobramycin, tobramycin], the “enhancement of tobramycin efficacy in the presence of PCCAs” value with MRSA strain LAC biofilms (300 kPa), in the test with MRSA strain LAC biofilms (600 kPa) and in the test with MRSA strain LAC biofilms (1200 kPa) was “significantly enhanced” in each case. Moreover, the “reduction in surviving biofilm cells” value in test [1] is listed as “significant reduction”.
As for `C[C@H]1COc2c(N3CCN(C)CC3)c(F)cc3c(=O)c(C(=O)O)cn1c23` [levofloxacin], the “reduction in surviving biofilm cells” value in test [1] is on record as “no efficacy”.
